In ChEMBL document CHEMBL1862790, “Optimisation of fenarimol series for the treatment of Chagas disease”:
Where “and” joins values, the source holds several entries; their conditions need not be identical. Equal values may be shown once.

Key:
[1] = test system: Trypanosoma cruzi; test: microbe, parasite or virus in culture; type: functional, organism-based, Tulahuen LacZ, Clone C4
[2] = DNDI: Cytotoxicity against L-6 rat myoblasts from skeletal muscle cells; details: L6 rat skeletal muscle myoblast cells
[3] = test system: Trypanosoma cruzi; test: microbe, parasite or virus in culture; type: functional, Tulahuen LacZ, Clone C4
[4] = Trypanosoma cruzi, Tulahuen LacZ, Clone C4

SMILES	IC50 [1, 4] [nM]	IC90 [3, 4] [nM]	IC50 [1] [nM]	IC90 [3]	IC50 ([2]; IC50) [nM]	IC50 [2] [nM]
CS(=O)(=O)N1CCC(C(O)(c2ccc(Cl)cc2)c2cccnc2)CC1 (configuration not stated)	200	550			> 100000	
Nc1nccnc1C(O)(c1ccc(Cl)cc1)c1ccc(Cl)cc1	> 10000	> 10000			63400	
CC(C)c1ccc(S(=O)(=O)NC(c2ccc(C(F)(F)F)cc2)c2cnccn2)cc1 (configuration not stated)	> 1000	> 1000			60000	
O=C(Cc1ccccc1)NC(c1ccc(C(F)(F)F)cc1)c1cnccn1 (configuration not stated)	> 1000	> 1000			> 100000	
Cc1noc(C)c1C(O)(c1ccc(Cl)cc1)c1ccc(C(F)(F)F)cc1 (configuration not stated)	> 1000	> 1000			57900	
CN(C)C(=O)NC1CCN(C(c2ccc(C(F)(F)F)cc2)c2cnccn2)CC1 (configuration not stated)	250	> 1000			> 100000	
CC(C)S(=O)(=O)NC(c1ccc(C(F)(F)F)cc1)c1cnccn1 (configuration not stated)	> 1000	> 1000			> 100000	
CON=C(Cc1ccccc1)c1ccc(F)cc1	> 1000					
Clc1ccc(C(c2ccc(Cl)cc2)c2cccnc2)cc1	80	1600				
OC(c1ccc(Cl)cc1)(c1cccnc1)c1ccc(Br)cc1F (configuration not stated)	27	120				
Cc1ccccc1C(O)(c1ccc(Cl)cc1)c1cccnc1 (configuration not stated)	370	2780				62000
O=C(Oc1ccccc1)N1CCC(NC(c2ccc(Cl)cc2)c2cccnc2)CC1 (configuration not stated)	20	44				60800
CS(=O)(=O)NC1CCN(C(c2ccc(C(F)(F)F)cc2)c2cnccn2)CC1 (configuration not stated)	1220	3020			> 100000	
N#Cc1ccc(C(c2cccnc2)N2CCC(NC(=O)c3ccc(C(F)(F)F)cc3)CC2)cc1 (configuration not stated)	20.5	76.5			65700	
COc1ccc(C(O)(c2cncnc2)c2ccccc2Cl)cc1 (configuration not stated)	393	60000			70900	
Cc1cnc(C(O)(c2ccc(Cl)cc2)c2ccc(C(F)(F)F)cc2)cn1 (configuration not stated)	> 1000	> 1000			61600	
O=C(Cc1ccccc1)N1CCC(NC(c2ccc(C(F)(F)F)cc2)c2cnccn2)CC1 (configuration not stated)	540	950			70500	
Cn1cc(C(=O)NC2CCN(C(c3ccc(C#N)cc3)c3cccnc3)CC2)cn1 (configuration not stated)	169	300			54300	
OC(c1ccc(Cl)cc1)(c1cncnc1)c1cccs1 (configuration not stated)	70	76000			> 100000	
CCC(=O)NC1CCN(C(c2ccc(C(F)(F)F)cc2)c2cnccn2)CC1 (configuration not stated)	1040	7600			> 100000	
N#Cc1cccc(C(O)(c2ccc(Cl)cc2)c2cccnc2)c1 (configuration not stated)	110	510			> 100000	
[O-][n+]1cncc(C(O)(c2ccc(Cl)cc2)c2ccccc2Cl)c1 (configuration not stated)	14500				> 100000	
N#Cc1cccc(OC2CCN(C(c3ccc(C(F)(F)F)cc3)c3cccnc3)CC2)c1 (configuration not stated)	7.5		8.25	12.5 nM and 29 nM		
OC(c1ccc(Cl)cc1)c1cccnc1 (configuration not stated)	4750	> 10000			> 100000	

Second part, led by results:

IC50 [1, 4] [nM]	IC90 [3, 4] [nM]	IC50 [1] [nM]	IC90 [3]	SMILES	IC50 ([2]; IC50) [nM]	IC50 [2] [nM]
26	82			O=C(C1CC1)N1CCN(C(c2cccnc2)c2ccc(Cl)cc2F)CC1 (configuration not stated)	> 100000	
83	364			CS(=O)(=O)NC1CCN(C(c2cccnc2)c2ccc(Cl)cc2F)CC1 (configuration not stated)	> 100000	
680	> 1000			CS(=O)(=O)N1CCC(NC(c2cnccn2)c2ccc(F)cc2F)CC1 (configuration not stated)	> 100000	
36	95			O=S(=O)(c1ccc(C(F)(F)F)cc1)N1CCC(NC(c2cccnc2)c2ccc(Cl)cc2F)CC1 (configuration not stated)	18000	
210	550			CC(C)c1ccc(S(=O)(=O)N2CCC(NC(c3cnccn3)c3ccc(F)cc3F)CC2)cc1 (configuration not stated)	21800	
150	550			O=C(C1CC1)N1CCC(NC(c2ccc(C(F)(F)F)cc2)c2cccnc2)CC1 (configuration not stated)	> 100000	
> 1000	> 1000			O=S(=O)(NC1CCN(C(c2cnccn2)c2ccc(F)cc2F)CC1)c1ccc(C(F)(F)F)cc1 (configuration not stated)	29400	
800	> 1000			OC1CCN(C(c2ccc(Cl)cc2)c2cccnc2)CC1 (configuration not stated)	> 100000	
378	820			O=C1CCCN1CCCNC(c1ccc(Cl)cc1)c1cccnc1 (configuration not stated)	> 100000	
> 1000	> 1000			CN1CCN(C(c2ccc(Cl)cc2)c2cccnc2)CC1 (configuration not stated)	> 100000	
78	250			O=C(Nc1ccccc1)N1CCC(NC(c2ccc(Cl)cc2)c2cccnc2)CC1 (configuration not stated)	63700	
19	50			Fc1cc(Cl)cc(N2CCC(NC(c3cccnc3)c3ccc(Cl)cc3F)CC2)c1 (configuration not stated)	53100	
180	300			O=C(C1CC1)N1CCC(NC(c2ccc(Cl)cc2)c2cccnc2)CC1 (configuration not stated)	> 100000	
59	190			CC(C)(C)OC(=O)NC1CCN(C(c2cncnc2)c2ccc(Cl)cc2F)CC1 (configuration not stated)	> 100000	
150	300			O=C(C1CCCCC1)N1CCN(C(c2cncnc2)c2ccc(Cl)cc2F)CC1 (configuration not stated)	> 100000	
